Patent US4069337A, “2-Substituted-indole-1-lower-alkanecarboxamides having anti-secretory or anti-ulcer activity” (Sterling Drug Inc., priority 1976, dated 1978)
Read-outs that look alike come from different tables or passages of the source.

What was measured:
[1] = tested on: secretion of gastric fluids; assay: anti-secretory activity in pylorus-ligated rats (method of Shay et al.); type: in vivo, male albino Wistar rats; details: 100 mg./kg.; for inhibition in vivo at 100 mg/kg: Rattus norvegicus, 5 h, read-out: % Inhibition of Free Acid
Procedure: In standard biological test procedures, described generally by Shay et al., Gastroenterology 5, 43 (1945) and 26, 906 (1954) and by Selmici et al., Acta Physiol. Acad. Sci. Hung. […] Anti-secretory activity was determined in male albino Wistar rats weighing approximately 180 g. using the method described by Shay et al. which is described as follows: the rats were divided into medicated groups of at least five rats each and control groups of ten rats. The rats were medicated orally once daily for 2 days prior to stomach ligation and once again immediately following ligation. All drugs were administered as the free base, and control rats received only the vehicle of medication. The rats were housed individually in wire cages, food was withdrawn 48 hours prior to surgery, and water was withdrawn at the time of surgery. Laparotomy was performed under light ether anesthesia, the pyloric-duodenal junction was ligated, and the wound was closed with metal clips and sprayed with a protective surgical dressing. Five hours following surgery, the rats were sacrificed, the stomach was removed, and the gastric juice collected. The gastric fluid was centrifuged, the total volume, color, and volume of solids were recorded. The pH of the gastric fluid was then determined on a Beckman pH meter, and the "free" and "total" hydrochloric acid content of each gastric sample was determined by titrating an aliquot of the gastric fluid (diluted to approximately 10 ml. with distilled water) by titrating with 0.1N sodium hydroxide against Toepfers reagent and phenolphthalein, respectively. By determining the milliequivalents of hydrochloric acid per milliliter of gastric juice and knowing the total volume of gastric juice secreted by each rat, the total acid output can be calculated. Since pH is a function of "free" acid, the activity of the test compounds can be evaluated by comparison of the mean "free" acid of medicated rats with the mean "free" acid of the controls, and the activity can thus be expressed in terms of percent inhibition of free acid.
(§1) Data obtained on administration of the compounds of formula I in rats in the anti-secretory and anti-ulcer tests described above are given in the table below. Unless noted otherwise, data were obtained on oral administration. Results in the anti-secretory activity tests are given in terms of the pH of the gastric fluid in the test animals and the percent inhibition of free acid, while results in the anti-ulcer test are given either in terms of the percent inhibition of ulcers or as a ratio representing the number of animals with ulcers (as the numerator) to the total number of animals in the test group (as the denominator). All doses are expressed in mg./kg.

[2] = tested on: reserpine-induced stomach ulceration; assay: anti-ulcer activity, reserpine-induced ulcer test (method of Selmici et al.); type: in vivo, male, albino, Sprague-Dawley rats; details: oral; for inhibition in vivo at 100 mg/kg / Anti-Ulcer: ratio of number of animals with ulcers to total number of animals in the test group: 100 mg./kg.
Procedure: The anti-ulcer activity of the compounds was determined using the reserpine-induced anti-ulcer test method, described by Selmici et al., which is described briefly as follows: male, albino, Sprague-Dawley rats, weighing approximately 300 g., were divided into medicated and control groups of at least five rats each, and one positive control group of five rats medicated with a known drug at the active dose was run with each experiment. The rats were medicated forty-eight, twenty-four, and one hour before receiving an injection of reserpine. All test drugs were administered orally in terms of base, and the control rats received only the vehicle of medication. The rats were housed individually in wire cages, and food was withdrawn 24 hours prior to injection of reserpine, while water was allowed ad libitum. One hour following the third medication, 5.0 mg. of reserpine per kilogram of body weight in a concentration of 5 mg./ml. was injected intramuscularly in each rat. Eighteen hours after injection the rats were sacrificed, their stomachs removed, opened along the greater curvature, rinsed in warm saline, and pinned to a cork board for gross observation. The stomachs were examined for the number and size of ulcerations located in the glandular portion of the stomach with the aid of a one millimeter grid ocular with a 10x dissecting microscope. The degree of ulceration was arbitrarily graded according to the number and size of the ulcers as follows:
The points were added together and divided by the number of rats in each group to give an ulcer score, and the difference in the mean scores of the medicated and control group was expressed as percent inhibition of ulceration. Alternatively, the results can be expressed as a ratio of the total number of rats with any degree of ulceration (as the numerator) to the total number of rats in the test group (as the denominator).
as §1

SMILES | inhibition in vivo at 100 mg/kg ([1]; po, oral) | inhibition in vivo at 100 mg/kg ([2]; Rattus norvegicus, 18 h) | pH of the gastric fluid ([1]; oral) | inhibition in vivo at 100 mg/kg ([1]; oral) | other results
Cc1c(C)n(CC(=O)NO)c2ccccc12 [Example 3B, 2,3-Dimethyl-1-indoleacetohydroxamic acid] | 20% | 99% | – | – | –
Cc1c(C)n(CC(N)=S)c2ccccc12 [Example 7A, 2,3-dimethyl-1-indolethioacetamide] | 58% | – | 2.3 | – | inhibition in vivo at 25 mg/kg ([2]; Rattus norvegicus, 18 h): 75%
Cc1c(CO)n(CCC(N)=O)c2ccccc12 [Example 8G, β-(2-hydroxymethyl-3-methyl-1-indole)propionamide] | 22% | – | 1.3 | – | inhibition in vivo at 100 mg/kg ([1]; intraduodenal, i.d.): 33%; inhibition in vivo at 100 mg/kg ([1]; ip, i.p.): 34%; pH of the gastric fluid ([1]; i.d.): 1.4; pH of the gastric fluid ([1]; i.p.): 1.7; Anti-Ulcer: ratio of number of animals with ulcers to total number of animals in the test group [2]: 3/5
Cc1c(CO)c2ccccc2n1CCC(N)=O [Example 8A, β-(2-methyl-3-hydroxymethyl-1-indole)propionamide] | 69% | 56% | 1.9 | – | inhibition in vivo at 100 mg/kg ([1]; intraduodenal, i.d.): 100%; inhibition in vivo at 100 mg/kg ([1]; ip, i.p.): 100%; inhibition in vivo at 100 mg/kg ([1]; sc, s.c.): 100%; pH of the gastric fluid ([1]; i.d.): 5.6; pH of the gastric fluid ([1]; i.p.): 7.0; pH of the gastric fluid ([1]; s.c.): 6.7
CCc1c(C)n(CC(N)=O)c2ccccc12 [Example 3C, 2-Methyl-3-ethyl-1-indoleacetamide] | 86% | 97% | 2.8 | – | –
Cc1c(C)n(CCC(=O)NCCO)c2ccccc12 [Example 3D, β-(2,3-Dimethyl-1-indole)-N-(2-hydroxyethyl)propionamide] | – | – | 1.2 | – | inhibition in vivo at 25 mg/kg ([2]; Rattus norvegicus, 18 h): 48%
Cc1c(C=O)c2cc(F)ccc2n1CCC(N)=O [Example 4G, β-(2-Methyl-3-formyl-5-fluoro-1-indole)propionamide] | – | – | 1.1 | 17% | inhibition in vivo at 100 mg/kg ([1]; sc, s.c.): 36%; pH of the gastric fluid ([1]; s.c.): 1.2; Anti-Ulcer: ratio of number of animals with ulcers to total number of animals in the test group [2]: 5/5
Cc1c(C=O)c2ccccc2n1CCCC(N)=O [Example 4J, γ-(2-Methyl-3-formyl-1-indole)butyramide] | – | 26% | 1.2 | 17% | –
Cc1c(C)n(CCC(=O)NO)c2ccccc12 [Example 3F, β-(2,3-Dimethyl-1-indole)propionohydroxamic acid] | 34% | – | 1.3 | – | inhibition in vivo at 50 mg/kg ([2]; Rattus norvegicus, 18 h, 50 mg./kg.): 95%
Cc1c(C=O)c2ccccc2n1CCC(N)=O [Example 4F, β-(2-Methyl-3-formyl-1-indole)propionamide] | – | 9% | 1.2 | 0% | –
